Laboratory results taken from ChEMBL document CHEMBL4402526, “Design and Synthesis of Fungal-Selective Resorcylate Aminopyrazole Hsp90 Inhibitors” (J Med Chem, 2020).
The source made the active and inactive calls. No rule for the calls is given here.

Assays:
[1] = Microsomal stability in CD-1 mouse liver microsomes assessed as parent compound remaining at 1 uM measured at 60 mins by LC-MS/MS analysis; type: ADME, Microsome; conditions: read-out: Stability
Candida albicans = assay: Antifungal activity against Candida albicans clinical isolate 2 assessed as fungal growth inhibition at <= […] uM measured after 48 hrs by resazurin assay; type: functional, organism-based
Cryptococcus neoformans = assay: Antifungal activity against Cryptococcus neoformans H99 assessed as fungal growth inhibition at <= […] uM measured after 48 hrs by resazurin assay; type: functional, organism-based

Compound: Cn1nc(-c2ccc(OC(F)(F)F)cc2)cc1Nc1cc(O)cc(O)c1C(=O)N1Cc2cccnc2C1
- remaining at 1 h, 1 µM [1]: 3.9%
- Activity (Candida albicans): Active
- Activity (Cryptococcus neoformans): Active

Compound: O=C(c1c(O)cc(O)cc1Nc1ccnn1Cc1cccnc1)N1Cc2ccccc2C1
- Activity (Candida albicans): Active
- Activity (Cryptococcus neoformans): Active

Compound: CC(C)n1nccc1Nc1cc(O)cc(O)c1C(=O)N1Cc2cccnc2C1
- Activity (Candida albicans): Active
- Activity (Cryptococcus neoformans): Active

Compound: COc1ccc(Cn2nc(C(C)(C)C)cc2Nc2cc(O)cc(O)c2C(=O)N2Cc3ccccc3C2)cc1
- Activity (Candida albicans): Active
- Activity (Cryptococcus neoformans): Active

Compound: Cc1ccccc1-c1cc(Nc2cc(O)cc(O)c2C(=O)N2Cc3cn[nH]c3C2)n(C)n1
- Activity (Candida albicans): Active
- Activity (Cryptococcus neoformans): Active

Compound: CC(C)Cn1nccc1Nc1cc(O)cc(O)c1C(=O)N1Cc2cn[nH]c2C1
- Activity (Candida albicans): Active
- Activity (Cryptococcus neoformans): Active

Compound: O=C(c1c(O)cc(O)cc1Nc1ccnn1Cc1ccc(C(F)(F)F)cc1)N1Cc2cn[nH]c2C1
- Activity (Candida albicans): Active
- Activity (Cryptococcus neoformans): Active

Compound: COc1ccc(Cn2nc(C)cc2Nc2cc(O)cc(O)c2C(=O)N2Cc3ccc(F)cc3C2)cc1
- Activity (Candida albicans): Active
- Activity (Cryptococcus neoformans): Active

Compound: COc1ccc(Cn2nc(-c3ccccc3)cc2Nc2cc(O)cc(O)c2C(=O)N2Cc3cccc(F)c3C2)cc1
- Activity (Candida albicans): Active
- Activity (Cryptococcus neoformans): Active

Compound: O=C(c1c(O)cc(O)cc1Nc1ccnn1CC1CCCCC1)N1Cc2cn[nH]c2C1
- Activity (Candida albicans): Active
- Activity (Cryptococcus neoformans): Active

Compound: CC(C)n1nccc1Nc1cc(O)cc(O)c1C(=O)N1Cc2cn[nH]c2C1
- Activity (Candida albicans): Active
- Activity (Cryptococcus neoformans): Active

Compound: COc1ccc(Cn2nc(C3CC3)cc2Nc2cc(O)cc(O)c2C(=O)N2Cc3cn[nH]c3C2)cc1
- Activity (Candida albicans): Active
- Activity (Cryptococcus neoformans): Active

Compound: CC(C)c1cc(Nc2cc(O)cc(O)c2C(=O)N2Cc3cn[nH]c3C2)n(C)n1
- Activity (Candida albicans): Active
- Activity (Cryptococcus neoformans): Active

Compound: COc1ccc(Cn2nc(C(C)C)cc2Nc2cc(O)cc(O)c2C(=O)N2Cc3cccnc3C2)cc1
- Activity (Candida albicans): Active
- Activity (Cryptococcus neoformans): Active

Compound: O=C(c1c(O)cc(O)cc1Nc1ccnn1Cc1ccco1)N1Cc2ccccc2C1
- Activity (Candida albicans): Active
- Activity (Cryptococcus neoformans): Active

Compound: COc1ccc(Cn2nc(C)cc2Nc2cc(O)cc(O)c2C(=O)N2Cc3ccccc3C2)cc1
- Activity (Candida albicans): Active
- Activity (Cryptococcus neoformans): Active

Compound: O=C(c1c(O)cc(O)cc1Nc1ccnn1Cc1ccco1)N1Cc2cn[nH]c2C1
- Activity (Candida albicans): Active
- Activity (Cryptococcus neoformans): Active

Compound: Cn1nc(-c2cccc(C(F)(F)F)c2)cc1Nc1cc(O)cc(O)c1C(=O)N1Cc2ccccc2C1
- Activity (Candida albicans): Active
- Activity (Cryptococcus neoformans): Active

Compound: Cn1nc(-c2ccccc2)cc1Nc1cc(O)cc(O)c1C(=O)N1Cc2cn[nH]c2C1
- Activity (Candida albicans): Active
- Activity (Cryptococcus neoformans): Active

Compound: O=C(c1c(O)cc(O)cc1Nc1cc(-c2ccccc2)nn1C1CCCCC1)N1Cc2cn[nH]c2C1
- Activity (Candida albicans): Active
- Activity (Cryptococcus neoformans): Active

Compound: COc1ccc(Cn2ncc(-c3ccccc3)c2Nc2cc(O)cc(O)c2C(=O)N2Cc3ccccc3C2)cc1
- Activity (Candida albicans): Active
- Activity (Cryptococcus neoformans): Active

Compound: Cn1nc(-c2ccc(C(C)(C)C)cc2)cc1Nc1cc(O)cc(O)c1C(=O)N1Cc2cccnc2C1
- Activity (Candida albicans): Active
- Activity (Cryptococcus neoformans): Active

Compound: Cc1ccc(-c2cc(Nc3cc(O)cc(O)c3C(=O)N3Cc4cccnc4C3)n(C)n2)cc1
- Activity (Candida albicans): Active
- Activity (Cryptococcus neoformans): Active

Compound: Cn1nc(C2CCCCC2)cc1Nc1cc(O)cc(O)c1C(=O)N1Cc2cccnc2C1
- Activity (Candida albicans): Active
- Activity (Cryptococcus neoformans): Active

Compound: COc1ccc(Cn2ncc(Cc3ccccc3)c2Nc2cc(O)cc(O)c2C(=O)N2Cc3ccccc3C2)cc1
- Activity (Candida albicans): Active
- Activity (Cryptococcus neoformans): Active

Compound: COc1ccc(-c2cc(Nc3cc(O)cc(O)c3C(=O)N3Cc4cn[nH]c4C3)n(C)n2)cc1
- Activity (Candida albicans): Active
- Activity (Cryptococcus neoformans): Active

Compound: O=C(c1c(O)cc(O)cc1Nc1ccnn1Cc1cccnc1)N1Cc2cn[nH]c2C1
- Activity (Candida albicans): Active
- Activity (Cryptococcus neoformans): Active
